# Measured values: publication PMC10145651, “Modulation of the 5-Lipoxygenase Pathway by Chalcogen-Containing Inhibitors of Leukotriene A4 Hydrolase” (International Journal of Molecular Sciences, 2023)
# Like-named read-outs stand apart in the source and are kept apart here.
# Experiments:
# [1] = target: T1, LTA4H (Homo sapiens, UniProt P09960); assay: Isothermal titration calorimetry with LTA4H; type: binding; parameters: made in house; host or cells: Escherichia coli JM101; settings: 25 mM Tris pH 7.8, 3% DMSO, 25 °C
# T1 sequence (P09960 1-611): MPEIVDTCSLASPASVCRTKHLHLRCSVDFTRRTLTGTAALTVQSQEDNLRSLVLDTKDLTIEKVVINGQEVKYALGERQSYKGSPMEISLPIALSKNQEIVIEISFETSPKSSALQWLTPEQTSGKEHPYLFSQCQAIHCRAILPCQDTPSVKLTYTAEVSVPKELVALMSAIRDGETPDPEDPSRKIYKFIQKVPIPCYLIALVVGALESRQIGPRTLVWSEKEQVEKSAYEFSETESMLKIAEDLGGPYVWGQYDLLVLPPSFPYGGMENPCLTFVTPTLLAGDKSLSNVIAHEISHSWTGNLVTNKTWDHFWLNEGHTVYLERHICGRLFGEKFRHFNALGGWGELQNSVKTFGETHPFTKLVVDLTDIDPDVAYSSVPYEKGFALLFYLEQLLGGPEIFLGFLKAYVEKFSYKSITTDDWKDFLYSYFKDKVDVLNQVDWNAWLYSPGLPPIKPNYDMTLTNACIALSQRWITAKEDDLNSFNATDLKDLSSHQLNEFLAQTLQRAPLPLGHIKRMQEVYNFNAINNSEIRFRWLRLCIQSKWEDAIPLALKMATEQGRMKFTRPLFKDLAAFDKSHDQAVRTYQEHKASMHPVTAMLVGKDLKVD
# Description: ITC was performed with an iTC200 calorimeter (MicroCal Inc., Northampton, MA, USA) equipped with a […] sample cell. Measurements were performed in 25 mM Tris-HCl pH 7.8 supplemented with 3% DMSO at 25 °C. […] After the ITC system was equilibrated, the initial injection of an inhibitor was performed in 0.5–1.0 µL followed by 15 injections in 2.5 µL. The time between each injection was 1.5–3.0 min to ensure the complete equilibration of the system. Collected data were analyzed by MicroCal PEAK-ITC Analysis Software. Control experiments were performed with identical conditions using only inhibitor, protein or buffer with 3% DMSO.
# [2] = target: T2, 5-LOX (Homo sapiens, UniProt P09917); assay: 5-LOX product formation from intact PMNs: 5S-HETE (cellular activity of 5-LOX); type: cell-based; parameters: stimulated intact polymorphonuclear neutrophils (PMNs); endogenous in cells; host or cells: human primary polymorphonuclear neutrophils (PMNs) from peripheral blood; settings: for inhibitory effect on the 5-LOX activity (5S-HETE) in PMNs with exogenous AA: 0.5 µM inhibitor, 0–20 µM AA
# T2 sequence (P09917 1-674): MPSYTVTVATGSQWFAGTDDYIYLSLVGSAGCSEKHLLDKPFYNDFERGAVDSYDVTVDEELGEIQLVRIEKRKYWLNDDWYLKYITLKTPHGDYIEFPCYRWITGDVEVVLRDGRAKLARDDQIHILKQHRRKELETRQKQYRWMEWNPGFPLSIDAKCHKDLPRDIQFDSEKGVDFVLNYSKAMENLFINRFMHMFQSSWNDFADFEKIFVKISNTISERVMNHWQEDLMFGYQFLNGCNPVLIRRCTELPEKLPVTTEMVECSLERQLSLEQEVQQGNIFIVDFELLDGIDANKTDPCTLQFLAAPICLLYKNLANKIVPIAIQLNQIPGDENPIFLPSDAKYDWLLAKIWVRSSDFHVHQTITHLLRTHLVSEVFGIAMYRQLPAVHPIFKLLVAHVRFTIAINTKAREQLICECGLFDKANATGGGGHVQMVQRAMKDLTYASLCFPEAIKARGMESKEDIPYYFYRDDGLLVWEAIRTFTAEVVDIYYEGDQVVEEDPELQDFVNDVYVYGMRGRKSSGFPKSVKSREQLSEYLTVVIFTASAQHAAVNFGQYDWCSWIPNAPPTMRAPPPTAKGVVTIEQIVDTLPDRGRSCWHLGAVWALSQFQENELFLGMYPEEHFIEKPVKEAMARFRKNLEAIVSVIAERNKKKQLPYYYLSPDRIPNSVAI
# Description: Human primary leukocytes were isolated from peripheral blood of healthy adult volunteers provided by the Institute of Transfusion Medicine at the University Hospital Greifswald as described before. All methods were performed in accordance with the Declaration of Helsinki. In brief, erythrocytes were removed by dextran sedimentation and leukocytes were separated by the density gradient centrifugation on a lymphocyte separation medium (Histopaque®-1077, Merck, Darmstadt, Germany). The remaining erythrocytes were removed by hypotonic lysis using water, and resulting polymorphonuclear neutrophils (PMNs) were resuspended in PBS containing 0.1% (w/v) glucose (PG buffer) or PG buffer with 1 mM CaCl2 (PGC buffer) as indicated. Resulting peripheral blood mononuclear cells (PBMC), including monocytes, were seeded in the RPMI 1640 medium supplemented with 10% (v/v) FCS, 100 U/mL penicillin, 100 µg/mL streptomycin and 2 mM L-glutamine in cell culture flasks (Greiner Bio-one, Frickenhausen, Germany) for 1.5 h at 37 °C and 5% CO2. Adherent monocytes were washed twice with PBS and were finally resuspended in the RPMI 1640 medium as described before.
# PMNs (5 × 10^6 cells/mL) were diluted in PGC buffer and pre-incubated with the vehicle (0.1%; v/v) or compounds for 10 min at 37 °C prior to the stimulation with 2.5 µM A23187. After 10 min at 37 °C, treatments were stopped on ice with an equal volume of ice-cold methanol. Next, 530 µL acidified PBS containing 200 ng PGB1 as an internal standard were added to the sample followed by the solid phase extraction with on a RP18 column. […] Formed 5-LOX metabolites were analyzed as described previously.
# [3] = mean ± SEM, n = 4, read-out: dissociation constant (Kd) by ITC
# [4] = read-out: dissociation constant (Kd) by ITC
# [5] = A23187-activated intact PMNs, 5S-HETE formation, read-out: IC50 on the 5-LOX activity (5S-HETE) in PMNs
"Kd [1, 3]","Kd [1, 4]","IC50 [2, 5]",Compound,inhibitory effect on the 5-LOX activity (5S-HETE) in PMNs with exogenous AA [2],Kd ([1]; dissociation constant (Kd) by ITC),"Kd ([1]; dissociation constant (Kd) by ITC, mean ± SEM, n = 4)",IC50 [2]
248 ± 53.2 nM,250 nM,1700 nM,"Nc1nc(-c2ccc(Cc3ccccc3)cc2)cs1 [ARM1, 4-(4-benzylphenyl) thiazol-2-amine, reference compound]",–,–,–,–
326 ± 29.4 nM,330 nM,2300 nM,"Nc1nc(-c2ccc(Cc3ccccc3)cc2)co1 [TTO, 4-(4-benzylphenyl) oxazol-2-amine]",did not have any inhibitory effects,–,–,–
–,–,–,"Nc1nc(-c2ccc(Cc3ccccc3)cc2)c[se]1 [TTSe, 4-(4-benzylphenyl) selenazol-2-amine]",did not have any inhibitory effects,370 nM,367 ± 10.7 nM,2300 nM
